Tests used:
[1] = test system: Pool 2 Gram negative fermenting bacteria: Enterobacter gergoviae & Klebsiella species; test: Liquid broth checkerboard assay (MIC, ΣFIC synergy), microorganism Pool 2; format: cell-based; conditions: tryptic soy broth, 30° C., 24 hours, ΣFIC<1 synergistic
Text: (§1) The differing behaviours of inhibitory antimicrobials in isolation and mixtures have been widely explored using the concept of the Fractional Concentration and Fractional Inhibitory Concentration (FIC). See for instance J R W Lambert and R Lambert, J. Appl. Microbiol 95, 734 (2003); T. Jadavji, C G Prober and R Cheung, Antimicrobial Agents and Chemotherapy 26, 91 (1984), and WO 2004/006876. These parameters can be defined as follows: FC(component a)=Concentration of component a tested in the mixture/MIC(component a tested as a single active) FIC(component a)=MIC(component a tested in the mixture)/MIC(component a tested as a single active)
(§2) These relationships can be expressed mathematically by summing the fractional MIC values for all the components present in the mixture to give the “fractional inhibitory index”: ΣFIC=FIC(component 1)+FIC(component 2)
(§3) ΣFIC≥1 corresponds to additive or antagonistic activity
(§4) ΣFIC<1 corresponds to synergistic activity
(§5) Liquid broth assays (MIC and checkerboard) were conducted to identify the minimum concentration(s) of individual and binary combinations of preservation chemicals. A modified methodology to ISO 20776-1:2006 was utilised for the screening as follows. Stock solutions of preservation chemicals and tryptic soy broth were inoculated with 1-5×10^6 microorganisms and incubated at 30° C. for 24 hours, after which optical densities at OD600 nm were measured. […] Preservation chemicals were screened at a concentration range of 0.0156-2%.

[2] = test system: Pool 1 Gram negative non-fermenting bacteria: Pseudomonas aeruginosa, Pseudomonas putida & Burkholderia cepacia; test: Liquid broth checkerboard assay (MIC, ΣFIC synergy), microorganism Pool 1; format: cell-based; conditions: tryptic soy broth, 30° C., 24 hours, ΣFIC<1 synergistic
Text: as §1, §2, §3, §4, §5

[3] = binary combination with Citric Acid
[4] = binary combination with Itaconic acid

Row | Compound | ΣFIC synergy score [1, 3] | ΣFIC synergy score [1, 4] | ΣFIC synergy score [2, 3] | ΣFIC synergy score [2, 4]
1 | CC(C)=CCC/C(C)=C/CO [Geraniol] | 1.06 | 0.5 | 0.75 | 0.31
2 | C=C(C)[C@@H]1CC=C(CO)CC1 [Perillyl alcohol] | 0.5 | 0.38 | 0.38 | 0.38

From US11490618B2, “Preservation compositions” (Conopco, Inc., priority 2018, dated 2022)
